Laboratory results from patent US10005768B2, “Carboxamide derivatives and use thereof” (Purdue Pharma L.P., priority 2013, dated 2018).

Molecular target: human Nav1.7 (Homo sapiens (Human), UniProt Q15858)
Test: FLIPR sodium dye assay (CoroNa Green AM Na+ dye, primary fluorescence assay)
Type: cell-based
Settings: recombinant Nav1.7/HEK293 cells
Protocol: In vitro assays were performed in a recombinant cell line expressing cDNA encoding the alpha subunit (Nav1.7, SCN9a, PN1, NE) of human Nav1.7 (Accession No. NM_002977). The cell line was provided by investigators at Yale University (Cummins et al, J. Neurosci. 18(23): 9607-9619 (1998)). For dominant selection of the Nav1.7-expressing clones, the expression plasmid co-expressed the neomycin resistance gene. The cell line was constructed in the human embryonic kidney cell line, HEK293, under the influence of the CMV […] promoter, and stable clones were selected using limiting dilution cloning and antibiotic selection using the neomycin analogue, G418. Recombinant beta and gamma subunits were not introduced into this cell line. Additional cell lines expressing recombinant Nav1.7 cloned from other species can also be used, alone or in combination with various beta subunits, gamma subunits or chaperones.
Unless otherwise noted, cell culture reagents were purchased from Mediatech of Herndon, Va. The recombinant Nav1.7/HEK293 cells were routinely cultured in growth medium consisting of Dulbecco's […] essential medium containing 10% fetal bovine serum (FBS, Hyclone, Thermo Fisher Scientific, Logan, Utah), 100 U/mL penicillin, 100 μg/mL streptomycin, 2-4 mM L-glutamine, and […] G418. For natural, non-recombinant cell lines, the selective antibiotic was omitted, and additional media formulations can be applied as needed.
The final buffer consisted of 20 mM Hepes, pH 7.3, 1.261 mM CaCl2, 0.493 mM MgCl2, 0.407 mM Mg(SO)4, 5.33 mM KCl, 0.441 mM KH2PO4, 137 mM NaCl, 0.336 mM Na2HPO4 and […] D-glucose (Hanks et al., Proc. Soc. Exp. Biol. Med. 71:196 (1949)), and the simple formulation was typically the basic buffer throughout the assay (i.e., all wash and addition steps).
The fluorescence indicator used in the primary fluorescence assay was the cell permeant version of CoroNa™ Green (Invitrogen, Molecular Probes, Eugene, Oreg.), a dye that emits light in the fluorescence range (Harootunian et al., J. Biol. Chem. 264(32):19458-19467 (1989)). The intensity of this emission, but not the wavelength range, is increased when the dye is exposed to Na^+ ions, which it can bind with partial selectivity. Cells expressing Nav1.7 or other sodium channels were loaded with the CoroNa™ Green dye immediately in advance of the fluorescence assay, and then, after agonist stimulation, the mobilization of Na^+ ions was detected as the Na^+ ions flowed from the extracellular fluid into the cytoplasm through the activated sodium channel pores. The dye was stored in the dark as a lyophilized powder, and then an aliquot was dissolved immediately before the cell loading procedure, according to the instructions of the manufacturer, to a stock concentration of 10 mM in DMSO. It was then diluted in the assay buffer to a 4× concentrated working solution, so that the final concentration of dye in the cell loading buffer was 5 μM.
In the fluorescence assays, two agonists were used in combination, namely 1) veratridine; and 2) the venom from the yellow scorpion, Leiurus quinquestriatus hebraeus. Veratridine is an alkaloid small molecule that facilitates the capture of channel openings by inhibiting inactivation, and the scorpion venom is a natural preparation that includes peptide toxins selective for different subsets of voltage-gated sodium channels. These scorpion toxins inhibit the fast inactivation of their cognate target channels. Stock solutions of the agonists were prepared to 40 mM in DMSO (veratridine) and 1 mg/mL in dH2O (scorpion venom), and then diluted to make a 4× or 2× stock (depending on the particular assay) in assay buffer, the final concentration being 100 μM (veratridine) and 10 μg/mL (scorpion venom). Both of the agonists were purchased from Sigma Aldrich, St. Louis, Mo.
Test compounds were dissolved in DMSO to yield 10 mM stock solutions. […]

human Nav1.7, sequence (Q15858 other isoform, or with tags, fused parts or gaps): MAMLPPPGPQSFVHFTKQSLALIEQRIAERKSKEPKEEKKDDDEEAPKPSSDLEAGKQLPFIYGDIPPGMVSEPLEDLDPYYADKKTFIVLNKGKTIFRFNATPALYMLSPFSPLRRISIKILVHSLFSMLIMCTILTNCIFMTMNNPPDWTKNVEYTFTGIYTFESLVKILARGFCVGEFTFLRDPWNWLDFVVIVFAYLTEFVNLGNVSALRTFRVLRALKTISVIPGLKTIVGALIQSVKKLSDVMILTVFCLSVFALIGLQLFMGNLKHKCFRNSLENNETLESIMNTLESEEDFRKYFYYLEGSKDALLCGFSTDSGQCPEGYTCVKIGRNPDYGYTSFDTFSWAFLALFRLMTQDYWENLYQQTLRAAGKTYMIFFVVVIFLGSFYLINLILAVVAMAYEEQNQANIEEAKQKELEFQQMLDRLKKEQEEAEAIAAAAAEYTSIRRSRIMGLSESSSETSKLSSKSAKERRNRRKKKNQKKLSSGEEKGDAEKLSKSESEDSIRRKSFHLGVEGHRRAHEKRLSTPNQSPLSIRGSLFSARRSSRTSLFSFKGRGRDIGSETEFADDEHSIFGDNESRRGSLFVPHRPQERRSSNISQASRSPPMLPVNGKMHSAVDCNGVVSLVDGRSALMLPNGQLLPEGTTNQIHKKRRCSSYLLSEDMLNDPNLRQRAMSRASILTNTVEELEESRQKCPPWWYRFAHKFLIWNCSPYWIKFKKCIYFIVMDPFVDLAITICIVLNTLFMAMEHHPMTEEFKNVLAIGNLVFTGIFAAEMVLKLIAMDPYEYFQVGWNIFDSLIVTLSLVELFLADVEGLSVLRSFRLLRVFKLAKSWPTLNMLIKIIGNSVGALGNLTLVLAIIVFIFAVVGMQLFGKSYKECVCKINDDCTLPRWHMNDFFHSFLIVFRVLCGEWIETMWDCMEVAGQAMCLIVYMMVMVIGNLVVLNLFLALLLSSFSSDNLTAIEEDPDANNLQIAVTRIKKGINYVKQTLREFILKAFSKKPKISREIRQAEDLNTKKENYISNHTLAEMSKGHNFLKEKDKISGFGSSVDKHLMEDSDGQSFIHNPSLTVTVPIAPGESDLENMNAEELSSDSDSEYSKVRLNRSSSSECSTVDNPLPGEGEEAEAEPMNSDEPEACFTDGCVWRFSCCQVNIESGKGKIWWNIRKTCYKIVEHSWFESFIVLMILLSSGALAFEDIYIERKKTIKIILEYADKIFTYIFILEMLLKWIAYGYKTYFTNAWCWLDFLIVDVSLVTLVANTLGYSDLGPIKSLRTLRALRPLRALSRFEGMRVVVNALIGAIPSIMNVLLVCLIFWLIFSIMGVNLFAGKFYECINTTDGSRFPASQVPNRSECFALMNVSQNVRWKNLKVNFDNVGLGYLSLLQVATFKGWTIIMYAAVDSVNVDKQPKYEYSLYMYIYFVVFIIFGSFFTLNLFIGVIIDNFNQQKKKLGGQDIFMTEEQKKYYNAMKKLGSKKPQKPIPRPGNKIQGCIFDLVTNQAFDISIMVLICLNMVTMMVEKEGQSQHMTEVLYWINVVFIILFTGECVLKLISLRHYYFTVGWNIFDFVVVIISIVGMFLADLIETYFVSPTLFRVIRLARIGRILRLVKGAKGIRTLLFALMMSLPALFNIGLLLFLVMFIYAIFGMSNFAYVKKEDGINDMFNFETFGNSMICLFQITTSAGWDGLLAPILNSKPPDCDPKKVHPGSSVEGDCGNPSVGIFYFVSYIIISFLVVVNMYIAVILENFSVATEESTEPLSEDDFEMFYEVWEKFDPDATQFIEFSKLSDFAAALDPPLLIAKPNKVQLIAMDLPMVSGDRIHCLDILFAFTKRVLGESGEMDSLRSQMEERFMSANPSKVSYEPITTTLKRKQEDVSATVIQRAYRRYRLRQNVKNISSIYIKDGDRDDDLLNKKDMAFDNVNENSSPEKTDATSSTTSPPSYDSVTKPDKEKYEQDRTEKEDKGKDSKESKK

Row | Structure (SMILES) | IC50 [µM]
1 | N#Cc1ccc(Oc2ccc(-c3cccc(C(N)=O)n3)cc2)c(-c2ccncc2)c1 [compound 15, 6-(4-(4-cyano-2-(pyridin-4-yl)phenoxy)phenyl)picolinamide] | 0.147 ± 0.016
2 | N#Cc1ccc(Oc2ccc(-c3cccc(C(N)=O)n3)cc2)c(-c2cccnc2)c1 [compound 16, 6-(4-(4-cyano-2-(pyridin-3-yl)phenoxy)phenyl)picolinamide] | 0.104 ± 0.02
3 | Cn1cccc1-c1cc(C#N)ccc1Oc1ccc(-c2cccc(C(N)=O)n2)cc1 [compound 17, 6-(4-(4-cyano-2-(1-methyl-1H-pyrrol-2-yl)phenoxy)phenyl)-picolinamide] | 0.067 ± 0.019
4 | N#Cc1ccc(Oc2ccc(-c3cccc(C(N)=O)n3)cc2)c(-c2ccc(N)cc2)c1 [compound 18, 6-(4-((4′-amino-5-cyano-[1,1′-biphenyl]-2-yl)oxy)phenyl)-picolinamide] | 0.426 ± 0.084
5 | N#Cc1ccc(Oc2ccc(-c3cccc(C(N)=O)n3)cc2)c(-c2ccsc2)c1 [compound 19, 6-(4-(4-cyano-2-(thiophen-3-yl)phenoxy)phenyl)picolinamide] | 0.337 ± 0.006
6 | COc1ccc(-c2cc(C#N)ccc2Oc2ccc(-c3cccc(C(N)=O)n3)cc2)cn1 [compound 20, 6-(4-(4-cyano-2-(6-methoxypyridin-3-yl)phenoxy)phenyl)picolinamide] | 0.124 ± 0.016
7 | Cn1cc(-c2cc(C#N)ccc2Oc2ccc(-c3cccc(C(N)=O)n3)cc2)cn1 [compound 21, 6-(4-(4-cyano-2-(1-methyl-1H-pyrazol-4-yl)phenoxy)phenyl)-picolinamide] | 0.564 ± 0.035
8 | Cn1nccc1-c1cc(C#N)ccc1Oc1ccc(-c2cccc(C(N)=O)n2)cc1 [compound 22, 6-(4-(4-cyano-2-(1-methyl-1H-pyrazol-5-yl)phenoxy)phenyl) picolinamide] | 0.285 ± 0.009
9 | N#Cc1ccc(Oc2ccc(-c3cccc(C(N)=O)n3)cc2)c(-c2ccc(O)nc2)c1 [compound 23, 6-(4-(4-cyano-2-(6-hydroxypyridin-3-yl)phenoxy)phenyl)picolinamide] | > 20
10 | COc1ncccc1-c1cc(C#N)ccc1Oc1ccc(-c2cccc(C(N)=O)n2)cc1 [compound 24, 6-(4-(4-cyano-2-(2-methoxypyridin-3-yl)phenoxy)phenyl)picolinamide] | 0.152 ± 0.031
11 | N#Cc1ccc(Oc2ccc(-c3cccc(C(N)=O)n3)cc2)cc1-c1ccncc1 [compound 26, 6-(4-(4-cyano-3-(pyridin-4-yl)phenoxy)phenyl)picolinamide] | 0.054 ± 0.005
12 | N#Cc1ccc(Oc2ccc(-c3cccc(C(N)=O)n3)cc2)cc1-c1cccnc1 [compound 27, 6-(4-(4-cyano-3-(pyridin-3-yl)phenoxy)phenyl)picolinamide] | 0.549 ± 0.085
13 | NC(=O)c1cccc(-c2ccc(Oc3ccc(C(F)(F)F)cc3-c3ccncc3)cc2)n1 [compound 28, 6-(4-(2-(pyridin-4-yl)-4-(trifluoromethyl)phenoxy)phenyl) picolinamide] | 0.101 ± 0.021
14 | NC(=O)c1cccc(-c2ccc(Oc3ccc(C(F)(F)F)cc3-c3cccnc3)cc2)n1 [compound 29, 6-(4-(2-(pyridin-3-yl)-4-(trifluoromethyl)phenoxy)phenyl) picolinamide] | 0.117 ± 0.036
15 | NC(=O)c1cccc(-c2ccc(Oc3ccc(C(F)(F)F)cc3CN3CCCC3)cc2)n1 [compound 30, 6-(4-(2-(pyrrolidin-1-ylmethyl)-4-(trifluoromethyl)phenoxy)phenyl) picolinamide] | 0.049 ± 0.003
16 | CN(C)CCNCc1cc(C(F)(F)F)ccc1Oc1ccc(-c2cccc(C(N)=O)n2)cc1 [compound 31, 6-(4-(2-(((2-(dimethylamino)ethyl)amino)methyl)-4-(trifluoromethyl)phenoxy)phenyl) picolinamide] | 2.14 ± 0.432
17 | NC(=O)c1cccc(-c2ccc(Oc3ccc(C(F)(F)F)cc3CNCCc3ccc(S(N)(=O)=O)cc3)cc2)n1 [compound 32, 6-(4-(2-(((4-sulfamoylphenethyl)-amino)methyl)-4-(trifluoro-methyl)phenoxy)phenyl)picolin-amide] | 3.05 ± 0.942
